This passage reports Ki results from ChEMBL document CHEMBL1145330, “NMR structure of a potent small molecule inhibitor bound to human keratinocyte fatty acid-binding protein” (J Med Chem, 2006).

For assay [1], the target named is Fatty acid-binding protein 5 (Homo sapiens, UniProt Q01469). The assay is described as follows: Binding affinity to human kFABP.
In assay [2] the target is Fatty acid-binding protein, adipocyte (Homo sapiens, UniProt P15090). The assay is described as follows: Binding affinity to ap2.
Fatty acid-binding protein, adipocyte, sequence (P15090 whole entry): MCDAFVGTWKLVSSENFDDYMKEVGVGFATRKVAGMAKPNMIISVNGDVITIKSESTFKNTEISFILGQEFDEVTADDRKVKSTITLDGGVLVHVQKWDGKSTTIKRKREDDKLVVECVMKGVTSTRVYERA

Fatty acid-binding protein 5, sequence (Q01469 whole entry): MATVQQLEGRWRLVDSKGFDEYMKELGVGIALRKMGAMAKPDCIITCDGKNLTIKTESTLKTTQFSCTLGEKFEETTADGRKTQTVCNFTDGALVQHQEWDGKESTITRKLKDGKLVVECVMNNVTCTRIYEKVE

As to `OCC(O)c1cccc(OCc2ccccc2Cl)c1OCc1ccccc1Cl` (stereo unspecified), the inhibition constant Ki in assay [1] and in assay [2] was over 2000 nM throughout.
Regarding `O=C(O)Cc1cccc(OCc2ccccc2Cl)c1OCc1ccccc1Cl`, in assay [2], affinity was put at a Ki of 16 nM.
On to `O=C(O)C(=O)c1cccc(OCc2ccccc2Cl)c1OCc1ccccc1Cl`, for which the Ki in assay [1] and in assay [2] was under 2 nM each time.
The compound `O=C(O)[C@@H](O)c1cccc(OCc2ccccc2Cl)c1OCc1ccccc1Cl` returned a Ki in assay [2] of 2.5 nM.
